{"source": "PubChem BioAssay AID2060602", "about": "(Molecular Pharmacology Branch, DTP, NCI, 2025);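 on viability, T/C: drug exposure lasted seven days before viability readout; 100% = DMSO vehicle control wells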", "tested_on": "648629-189-R-J1-PDC complex spheroids viability", "assay": "Anticancer human tumor 648629-189-R-J1-PDC patient-derived bladder carcinoma cell line growth inhibition [CLK]", "conditions": "for IC50: curve of first compound; for viability, T/C: stronger effect = lower value", "how_it_was_run": "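Multi-cell-type spheroids combined patient-derived tumor cells with HUVEC endothelial cells and human mesenchymal stem cells. Paired agents were dosed in half-log steps down from about clinical Cmax, or from 10 microM where Cmax was unknown.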", "key": {"[1]": {"conditions": "second compound 0.0316 µM, first compound 0.0316 µM"}, "[2]": {"conditions": "second compound 0.0316 µM, first compound 0.1 µM"}, "[3]": {"conditions": "second compound 0.0316 µM, first compound 0.316 µM"}, "[4]": {"conditions": "second compound 0.0316 µM, first compound 1 µM"}, "[5]": {"conditions": "second compound 0.1 µM, first compound 0.0316 µM"}, "[6]": {"conditions": "second compound 0.1 µM, first compound 0.1 µM"}, "[7]": {"conditions": "second compound 0.1 µM, first compound 0.316 µM"}, "[8]": {"conditions": "second compound 0.1 µM, first compound 1 µM"}, "[9]": {"conditions": "second compound 0.316 µM, first compound 0.0316 µM"}, "[10]": {"conditions": "second compound 0.316 µM, first compound 0.1 µM"}, "[11]": {"conditions": "second compound 0.316 µM, first compound 0.316 µM"}, "[12]": {"conditions": "second compound 0.316 µM, first compound 1 µM"}, "[13]": {"conditions": "second compound 1 µM, first compound 0.0316 µM"}, "[14]": {"conditions": "second compound 1 µM, first compound 0.1 µM"}, "[15]": {"conditions": "second compound 1 µM, first compound 0.316 µM"}, "[16]": {"conditions": "second compound 1 µM, first compound 1 µM"}, "[17]": {"conditions": "second compound 3.16 µM, first compound 0.0316 µM"}, "[18]": {"conditions": "second compound 3.16 µM, first compound 0.1 µM"}, "[19]": {"conditions": "second compound 3.16 µM, first compound 0.316 µM"}, "[20]": {"conditions": "second compound 3.16 µM, first compound 1 µM"}, "[21]": {"conditions": "second compound 10 µM, first compound 0.0316 µM"}, "[22]": {"conditions": "second compound 10 µM, first compound 0.1 µM"}, "[23]": {"conditions": "second compound 10 µM, first compound 0.316 µM"}, "[24]": {"conditions": "second compound 10 µM, first compound 1 µM"}}, "data": [{"smiles": "CC(=O)O[C@H]1C(=O)[C@@]2(C)[C@H]([C@H](OC(=O)c3ccccc3)[C@]3(O)C[C@H](OC(=O)[C@H](O)[C@@H](NC(=O)c4ccccc4)c4ccccc4)C(C)=C1C3(C)C)[C@]1(OC(C)=O)CO[C@@H]1C[C@@H]2O", "note": "+ CN1CCN(c2cc(C(=O)Nc3cc4cc(-c5cnn(C)c5)ccc4cn3)ccn2)CC1", "values": [{"measurement": "IC50", "setting": "second compound 0.0316 µM", "value": "< 31.6", "unit": "nM"}, {"measurement": "IC50", "setting": "second compound 0.1 µM", "value": "< 31.6", "unit": "nM"}, {"measurement": "IC50", "setting": "second compound 0.316 µM", "value": "< 31.6", "unit": "nM"}, {"measurement": "IC50", "setting": "second compound 1 µM", "value": "< 31.6", "unit": "nM"}, {"measurement": "IC50", "setting": "second compound 3.16 µM", "value": "< 31.6", "unit": "nM"}, {"measurement": "IC50", "setting": "second compound 10 µM", "value": "< 31.6", "unit": "nM"}, {"measurement": "viability, T/C", "setting": "[1]", "value": 10.9, "unit": "%"}, {"measurement": "viability, T/C", "setting": "[2]", "value": 8.37, "unit": "%"}, {"measurement": "viability, T/C", "setting": "[3]", "value": 9.02, "unit": "%"}, {"measurement": "viability, T/C", "setting": "[4]", "value": 10.6, "unit": "%"}, {"measurement": "viability, T/C", "setting": "second compound 0.0316 µM, first compound 3.16 µM", "value": 7.39, "unit": "%"}, {"measurement": "viability, T/C", "setting": "second compound 0.0316 µM, first compound 10 µM", "value": 9.59, "unit": "%"}, {"measurement": "viability, T/C", "setting": "[5]", "value": 7.2, "unit": "%"}, {"measurement": "viability, T/C", "setting": "[6]", "value": 8.42, "unit": "%"}, {"measurement": "viability, T/C", "setting": "[7]", "value": 6.79, "unit": "%"}, {"measurement": "viability, T/C", "setting": "[8]", "value": 7.78, "unit": "%"}, {"measurement": "viability, T/C", "setting": "second compound 0.1 µM, first compound 3.16 µM", "value": 8.57, "unit": "%"}, {"measurement": "viability, T/C", "setting": "second compound 0.1 µM, first compound 10 µM", "value": 9.47, "unit": "%"}, {"measurement": "viability, T/C", "setting": "[9]", "value": 9.01, "unit": "%"}, {"measurement": "viability, T/C", "setting": "[10]", "value": 9.65, "unit": "%"}, {"measurement": "viability, T/C", "setting": "[11]", "value": 10.1, "unit": "%"}, {"measurement": "viability, T/C", "setting": "[12]", "value": 9.51, "unit": "%"}, {"measurement": "viability, T/C", "setting": "second compound 0.316 µM, first compound 3.16 µM", "value": 8.91, "unit": "%"}, {"measurement": "viability, T/C", "setting": "second compound 0.316 µM, first compound 10 µM", "value": 11.2, "unit": "%"}, {"measurement": "viability, T/C", "setting": "[13]", "value": 0.14, "unit": "%"}, {"measurement": "viability, T/C", "setting": "[14]", "value": 0.13, "unit": "%"}, {"measurement": "viability, T/C", "setting": "[15]", "value": 0.87, "unit": "%"}, {"measurement": "viability, T/C", "setting": "[16]", "value": 0.11, "unit": "%"}, {"measurement": "viability, T/C", "setting": "second compound 1 µM, first compound 3.16 µM", "value": 0.47, "unit": "%"}, {"measurement": "viability, T/C", "setting": "second compound 1 µM, first compound 10 µM", "value": 0.64, "unit": "%"}, {"measurement": "viability, T/C", "setting": "[17]", "value": 0.07, "unit": "%"}, {"measurement": "viability, T/C", "setting": "[18]", "value": 1.18, "unit": "%"}, {"measurement": "viability, T/C", "setting": "[19]", "value": 0.13, "unit": "%"}, {"measurement": "viability, T/C", "setting": "[20]", "value": 0.09, "unit": "%"}, {"measurement": "viability, T/C", "setting": "second compound 3.16 µM, first compound 3.16 µM", "value": 0.11, "unit": "%"}, {"measurement": "viability, T/C", "setting": "second compound 3.16 µM, first compound 10 µM", "value": 0.1, "unit": "%"}, {"measurement": "viability, T/C", "setting": "[21]", "value": 0.1, "unit": "%"}, {"measurement": "viability, T/C", "setting": "[22]", "value": 0.13, "unit": "%"}, {"measurement": "viability, T/C", "setting": "[23]", "value": 0.2, "unit": "%"}, {"measurement": "viability, T/C", "setting": "[24]", "value": 0.17, "unit": "%"}, {"measurement": "viability, T/C", "setting": "second compound 10 µM, first compound 3.16 µM", "value": 1.53, "unit": "%"}, {"measurement": "viability, T/C", "setting": "second compound 10 µM, first compound 10 µM", "value": 0.16, "unit": "%"}]}, {"smiles": "CCc1c2c(nc3ccc(O)cc13)-c1cc3c(c(=O)n1C2)COC(=O)[C@]3(O)CC", "note": "+ CN1CCN(c2cc(C(=O)Nc3cc4cc(-c5cnn(C)c5)ccc4cn3)ccn2)CC1", "values": [{"measurement": "IC50", "setting": "second compound 0.0316 µM", "value": "< 3.16", "unit": "nM"}, {"measurement": "IC50", "setting": "second compound 0.1 µM", "value": "< 3.16", "unit": "nM"}, {"measurement": "IC50", "setting": "second compound 0.316 µM", "value": "< 3.16", "unit": "nM"}, {"measurement": "IC50", "setting": "second compound 1 µM", "value": "< 3.16", "unit": "nM"}, {"measurement": "IC50", "setting": "second compound 3.16 µM", "value": "< 3.16", "unit": "nM"}, {"measurement": "IC50", "setting": "second compound 10 µM", "value": "< 3.16", "unit": "nM"}, {"measurement": "viability, T/C", "setting": "second compound 0.0316 µM, first compound 0.00316 µM", "value": 36.5, "unit": "%"}, {"measurement": "viability, T/C", "setting": "second compound 0.0316 µM, first compound 0.01 µM", "value": 14.7, "unit": "%"}, {"measurement": "viability, T/C", "setting": "[1]", "value": 7.53, "unit": "%"}, {"measurement": "viability, T/C", "setting": "[2]", "value": 5.28, "unit": "%"}, {"measurement": "viability, T/C", "setting": "[3]", "value": 3.93, "unit": "%"}, {"measurement": "viability, T/C", "setting": "[4]", "value": 3.89, "unit": "%"}, {"measurement": "viability, T/C", "setting": "second compound 0.1 µM, first compound 0.00316 µM", "value": 29, "unit": "%"}, {"measurement": "viability, T/C", "setting": "second compound 0.1 µM, first compound 0.01 µM", "value": 15.4, "unit": "%"}, {"measurement": "viability, T/C", "setting": "[5]", "value": 6.89, "unit": "%"}, {"measurement": "viability, T/C", "setting": "[6]", "value": 4.76, "unit": "%"}, {"measurement": "viability, T/C", "setting": "[7]", "value": 4.13, "unit": "%"}, {"measurement": "viability, T/C", "setting": "[8]", "value": 4.88, "unit": "%"}, {"measurement": "viability, T/C", "setting": "second compound 0.316 µM, first compound 0.00316 µM", "value": 22.5, "unit": "%"}, {"measurement": "viability, T/C", "setting": "second compound 0.316 µM, first compound 0.01 µM", "value": 16.7, "unit": "%"}, {"measurement": "viability, T/C", "setting": "[9]", "value": 10.8, "unit": "%"}, {"measurement": "viability, T/C", "setting": "[10]", "value": 6.46, "unit": "%"}, {"measurement": "viability, T/C", "setting": "[11]", "value": 6.71, "unit": "%"}, {"measurement": "viability, T/C", "setting": "[12]", "value": 3.75, "unit": "%"}, {"measurement": "viability, T/C", "setting": "second compound 1 µM, first compound 0.00316 µM", "value": 0.15, "unit": "%"}, {"measurement": "viability, T/C", "setting": "second compound 1 µM, first compound 0.01 µM", "value": 0.14, "unit": "%"}, {"measurement": "viability, T/C", "setting": "[13]", "value": 0.15, "unit": "%"}, {"measurement": "viability, T/C", "setting": "[14]", "value": 0.06, "unit": "%"}, {"measurement": "viability, T/C", "setting": "[15]", "value": 0.21, "unit": "%"}, {"measurement": "viability, T/C", "setting": "[16]", "value": 1.34, "unit": "%"}, {"measurement": "viability, T/C", "setting": "second compound 3.16 µM, first compound 0.00316 µM", "value": 0.05, "unit": "%"}, {"measurement": "viability, T/C", "setting": "second compound 3.16 µM, first compound 0.01 µM", "value": 1.41, "unit": "%"}, {"measurement": "viability, T/C", "setting": "[17]", "value": 0.1, "unit": "%"}, {"measurement": "viability, T/C", "setting": "[18]", "value": 0.07, "unit": "%"}, {"measurement": "viability, T/C", "setting": "[19]", "value": 0.3, "unit": "%"}, {"measurement": "viability, T/C", "setting": "[20]", "value": 0.54, "unit": "%"}, {"measurement": "viability, T/C", "setting": "second compound 10 µM, first compound 0.00316 µM", "value": 0.05, "unit": "%"}, {"measurement": "viability, T/C", "setting": "second compound 10 µM, first compound 0.01 µM", "value": 0.52, "unit": "%"}, {"measurement": "viability, T/C", "setting": "[21]", "value": 0.17, "unit": "%"}, {"measurement": "viability, T/C", "setting": "[22]", "value": 0.15, "unit": "%"}, {"measurement": "viability, T/C", "setting": "[23]", "value": 0.22, "unit": "%"}, {"measurement": "viability, T/C", "setting": "[24]", "value": 0.48, "unit": "%"}]}]}
